Experimental data reported in ChEMBL document CHEMBL3734709, “Design, synthesis and evaluation of diarylpiperazine derivatives as potent anti-tubercular agents” (Eur J Med Chem, 2015).
Converted amounts (≈) assume the structure as drawn.

Legend:
[1] = system: Mycobacterium tuberculosis; experiment: Antitubercular activity against Mycobacterium tuberculosis H37Rv measured on day 4 by microplate Alamar blue assay; type: functional; conditions: 96 h
[2] = Selectivity index, ratio of CC50 for african green monkey Vero cells to MIC for Mycobacterium tuberculosis H37Rv; type: toxicity, cell-based; conditions: read-out: Selectivity Index
[3] = Cytotoxicity against african green monkey Vero cells after 72 hrs by MTT assay; type: cell-based; conditions: chlorocebus sabaeus

Row | Compound | MIC90 [1] [µM] | selectivity ratio [2] | CC50 at 72 h [3] [µg/mL]
1 | CO[C@H]1/C=C/O[C@@]2(C)Oc3c(C)c(O)c4c(O)c(c(/C=N/N5CCN(C)CC5)c(O)c4c3C2=O)NC(=O)/C(C)=C\C=C\[C@H](C)[C@H](O)[C@@H](C)[C@@H](O)[C@@H](C)[C@H](OC(C)=O)[C@@H]1C [RIFAMPIN] | 0.13 (≈ 0.107 µg/mL) | > 1360 | > 150
2 | Cn1c2ccccc2c2cc(C(=O)N3CCN(c4ccccc4F)CC3)nc(-c3ccccc3)c21 | 5.8 (≈ 2.69 µg/mL) | > 18.5 | > 50
3 | Cc1ccc(N2CCN(C(=O)c3cc4c5ccccc5n(C)c4c(-c4ccccc4)n3)CC2)cc1 | 9.3 (≈ 4.28 µg/mL) | > 11.6 | > 50
4 | Cn1c2ccccc2c2cc(C(=O)N3CCN(c4ccc(F)cc4)CC3)nc(-c3ccccc3)c21 | 5.6 (≈ 2.6 µg/mL) | > 19.2 | > 50
5 | Cn1c2ccccc2c2cc(C(=O)N3CCN(c4cccc(Cl)c4)CC3)nc(-c3ccccc3)c21 | 79.6 (≈ 38.3 µg/mL) | > 1.3 | > 50
6 | Cc1ccccc1N1CCN(C(=O)c2cc3c4ccccc4n(C)c3c(-c3ccccc3)n2)CC1 | 5.2 (≈ 2.4 µg/mL) | > 20.8 | > 50
7 | COc1ccc(N2CCN(C(=O)c3cc4c5ccccc5n(C)c4c(-c4ccccc4)n3)CC2)cc1 | 10.1 (≈ 4.81 µg/mL) | > 8.6 | > 50
8 | Cn1c2ccccc2c2cc(C(=O)N3CCN(c4cccc(Cl)c4Cl)CC3)nc(-c3ccccc3)c21 | 2.9 (≈ 1.49 µg/mL) | > 33.3 | > 50
9 | Cn1c2ccccc2c2cc(C(=O)N3CCN(c4ccncc4)CC3)nc(-c3ccccc3)c21 | 9.8 (≈ 4.39 µg/mL) | 4.5 | 18 (≈ 40.2 µM)
10 | Cn1c2ccccc2c2cc(C(=O)N3CCN(Cc4ccccc4)CC3)nc(-c3ccccc3)c21 | 8.9 (≈ 4.1 µg/mL) | > 12.2 | > 50
11 | Cn1c2ccccc2c2cc(C(=O)N3CCN(c4ccccc4)CC3)nc(-c3ccccc3)c21 | 27.4 (≈ 12.2 µg/mL) | > 4.1 | > 50
12 | Cn1c2ccccc2c2cc(C(=O)N3CCN(c4ccccc4Cl)CC3)nc(-c3ccccc3)c21 | 5 (≈ 2.4 µg/mL) | > 20.8 | > 50
13 | Cn1c2ccccc2c2cc(C(=O)N3CCN(c4ccc(Cl)cc4)CC3)nc(-c3ccccc3)c21 | 83.3 (≈ 40.1 µg/mL) | > 1.3 | > 50
14 | Cn1c2ccccc2c2cc(C(=O)N3CCN(c4ccccn4)CC3)nc(-c3ccccc3)c21 | 9.8 (≈ 4.39 µg/mL) | > 11.4 | > 50
15 | COc1ccccc1N1CCN(C(=O)c2cc3c4ccccc4n(C)c3c(-c3ccccc3)n2)CC1 | 3.5 (≈ 1.67 µg/mL) | > 25 | > 50
